Laboratory results: article PMC8623273, “Novel N7-Arylmethyl Substituted Dinucleotide mRNA 5′ cap Analogs: Synthesis and Evaluation as Modulators of Translation” (Pharmaceutics, 2021)

Tests used:
[1] = target: eukaryotic translation initiation factor 4E (eIF4E) (Mus musculus, UniProt P63073); experiment: pyrene-probe fluorescent competitive-binding assay (PyFLINT-B) for cap analog-eIF4E; conditions: for EC50: Table S2; for Kd: pyrene-based high-throughput competition assay, 30 °C, KD calculated from EC50, read-out: KD Cap-eIF4E ± SD; for effect of the N7 substituent on eIF4E binding (in words): compared to m^7GpppG / 1a or unmodified counterpart
From the text: (§1) High affinity for eIF4E is a desirable feature of cap analogs designed for modulating translation, either as small molecules or as a part of mRNA. Thus, we studied how different substituents at the N7-position affected eIF4E-cap interaction. To this end, we first determined the affinity of m^7GpppG and Bn^7GpppG (1a) using time-synchronized fluorescence quenching titration, a very precise and well-established, but low-throughput method. Next, to evaluate the whole set of the synthesized compounds (1a–1r), we used a high-throughput competitive-binding assay based on a pyrene-labeled fluorescent probe. From this assay we determined relative affinities of the compounds represented by half-effective concentrations (EC50) (Figure 3A–C), which were then used to calculate dissociation constant (KD) values for cap analog–eIF4E complexes using previously reported equations (Table 2, Figure 3D).
To determine the dissociation constants of the library of N7-benzylated dinucleotide 5′ cap analogs for translation initiation factor 4E, a fluorescent competitive-binding assay (PyFLINT-B) was applied as previously described. The experiments were performed on a Synergy™ H1 plate reader in 96-well, black, non-binding assay plates. Each well contained an appropriate buffer (50 mM Hepes/KOH pH 7.2, 100 mM KCl and 0.5 mM EDTA), pyrene probe m^7Gp5C4Py (10 nM), substrate (in half-logarithmic dilutions from 850 μM to 0.03 μM for compound 1m and from 100 μM to 0.003 μM for m^7GpppG and the rest of the compounds) and protein eIF4E (75 nM). The m^7Gp5C4Py was synthesized as describer earlier. The pyrene probe was dissolved in water and concentration was determined spectrometrically at 345 nm using the extinction coefficient (21,000 M^−1 cm^−1). The eIF4E protein was centrifuged after defrosting (5 min, 4 °C, 10k rcf) and its concentration was determined spectrometrically at 280 nm using the extinction coefficient (52,940 M^−1 cm^−1). The reaction mixtures were preincubated (15 min, 300 rpm, 30 °C). All measurements were performed at 30 °C and the fluorescence detection at 345 nm excitation and 378 nm emission was recorded.
To determine EC50 values, GraphPad Prism 9.1.2 software was used. To fit the curves to the obtained data we used the following formula:(1) Y=Bottom+ Top−Bottom/1+ X/EC50 where: X, cap analog (ligand) concentration; EC50, concentration of the cap analog resulting in half-maximal response from the fluorescent probe–protein complex; Bottom, minimal signal from the negative control, which contains only the free probe; Top, maximal signal from the positive control, the mixture of the protein and the fluorescent probe.
The dissociation constants KD were then calculated using the equation described by Nikolovska-Coleska et al.:(2) KD=EC50−Pt+PL50KD_probe/L50+1/L50/KD_probe+P0/KD_probe+1 where: EC50, concentration of the cap analog resulting in half-maximal response from the fluorescent probe–protein complex; [Pt], total protein concentration; [PL]50, concentration of the probe–protein complex at 50% inhibition; KD_probe, dissociation constant of the complex between the fluorescent probe and the protein; [L]50, probe concentration at 50% inhibition; [P]0, free protein concentration at 0% inhibition.

[2] = tested on: A549 cells; experiment: translational efficiency of mRNAs capped with the analogs in A549 cells (Gaussia luciferase); assay type: cell-based
Experimental: Finally, we tested the properties of arylmethyl cap analogs as reagents for co-transcriptional mRNA capping. […] Here, we sought to evaluate the translational properties of mRNAs capped with N7-arylmethyl analogs in cultured cells. To that end, the translation properties of transcripts capped with selected analogs were assessed in A549 cells. In vitro transcribed mRNAs encoding Gaussia luciferase, capped with compounds 1a–1k, 1m–1n, and 1p–1r or with reference analogues m^7GpppG and ARCA (m^7GmpppG), were purified via RP HPLC, transfected into A549 cells, and the protein activity (luminescence) was measured using a reporter assay at 72 h post-transfection. The total amount of protein produced over 72 h from each capped RNA was normalized to m^7GpppG RNA (Figure 6 and Figure S4). […] Namely, replacing the N7-methyl group with a benzyl moiety (1a) increased protein production over fivefold in A549 cells compared to m^7GpppG-capped mRNA (Figure 6).
The influence of N7-arylmethylated dinucleotide 5′ cap analogues on the translational properties of HPLC-purified IVT mRNA is shown in Figure S4, Measurements are total protein produced over 72 h by A549 cells transfected with capped mRNAs. Each plot in Figure S4 represents a single experiment consisting of three independent transfections of the cells at the same passage. Bars show mean value normalized to […] ± SD. In the main manuscript, all nine data points from three different cell passages were combined to present cumulative protein expression.

[3] = tested on: translation in vitro (RRL); design: method as in PMID 15317978; conditions: cap incorporated into mRNA; cited from earlier work
[4] = target: eIF4E (Mus musculus, UniProt P63073); experiment: time-synchronized fluorescence quenching titration with eIF4E; assay type: binding; conditions: 50 mM Hepes pH 7.2, 134.5 mM KCl, 20 °C, read-out: KD Cap-eIF4E ± SD (value in brackets) (converted)
From the text: as §1

Sequence of eukaryotic translation initiation factor 4E (eIF4E) (P63073 whole entry): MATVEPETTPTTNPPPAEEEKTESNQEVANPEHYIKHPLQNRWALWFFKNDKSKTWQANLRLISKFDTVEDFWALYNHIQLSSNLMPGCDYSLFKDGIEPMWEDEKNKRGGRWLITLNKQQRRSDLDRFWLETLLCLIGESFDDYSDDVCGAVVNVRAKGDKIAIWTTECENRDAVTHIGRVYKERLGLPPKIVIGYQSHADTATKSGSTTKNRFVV
Sequence of eIF4E (P63073 whole entry): as above

SMILES | EC50 [1] [nM] | Kd [1] [nM] | effect of the N7 substituent on eIF4E binding (in words) [1] | further results
Nc1nc(O)c2c(n1)n([C@@H]1O[C@H](COP(=O)(O)OP(=O)([O-])OP(=O)(O)OC[C@H]3O[C@@H](n4cnc5c(=O)[nH]c(N)nc54)[C@H](O)[C@@H]3O)[C@@H](O)[C@H]1O)c[n+]2Cc1ccc(Br)cc1 [1i, 4-Br-Bn^7GpppG] | 2000 | 172 ± 26 |  | 
CC(C)c1ccc(C[n+]2cn([C@@H]3O[C@H](COP(=O)(O)OP(=O)([O-])OP(=O)(O)OC[C@H]4O[C@@H](n5cnc6c(=O)[nH]c(N)nc65)[C@H](O)[C@@H]4O)[C@@H](O)[C@H]3O)c3nc(N)nc(O)c32)cc1 [1e, 4-iPrBn^7GpppG] | 6200 | 534 ± 100 | KD increased more than double | 
Nc1nc(O)c2c(n1)n([C@@H]1O[C@H](COP(=O)(O)OP(=O)([O-])OP(=O)(O)OC[C@H]3O[C@@H](n4cnc5c(=O)[nH]c(N)nc54)[C@H](O)[C@@H]3O)[C@@H](O)[C@H]1O)c[n+]2Cc1ccc(F)c(F)c1 [1k, 3,4-di-F-Bn^7GpppG] | 5700 | 489 ± 77 |  | 
CO[C@@H]1[C@H](O)[C@@H](COP(=O)(O)OP(=O)([O-])OP(=O)(O)OC[C@H]2O[C@@H](n3cnc4c(=O)[nH]c(N)nc43)[C@H](O)[C@@H]2O)O[C@H]1n1c[n+](Cc2ccc(Cl)cc2)c2c(O)nc(N)nc21 [1r, 4-Cl-Bn^7GmpppG] | 1600 | 132 ± 20 | twofold increase in cap-binding affinity | change of protein expression of ARCA analog compared to 2'-O-unmethylated counterpart (1q vs 1a, 1r vs 1h) ([2]; A549 cells, 72 h): decreased the protein expression by twofold
CO[C@@H]1[C@H](O)[C@@H](COP(=O)(O)OP(=O)([O-])OP(=O)(O)OC[C@H]2O[C@@H](n3cnc4c(=O)[nH]c(N)nc43)[C@H](O)[C@@H]2O)O[C@H]1n1c[n+](Cc2ccccc2)c2c(O)nc(N)nc21 [1q, Bn^7GmpppG] | 2000 | 171 ± 25 | twofold increase in cap-binding affinity | change of protein expression of ARCA analog compared to 2'-O-unmethylated counterpart (1q vs 1a, 1r vs 1h) ([2]; A549 cells, 72 h): additional twofold increase
Nc1nc(O)c2c(n1)n([C@@H]1O[C@H](COP(=O)(O)OP(=O)([O-])OP(=O)(O)OC[C@H]3O[C@@H](n4cnc5c(=O)[nH]c(N)nc54)[C@H](O)[C@@H]3O)[C@@H](O)[C@H]1O)c[n+]2Cc1ccccc1 [1a, Bn^7GpppG] |  | 217 ± 36 |  | translation efficiency in vitro relative to m^7GpppG-capped mRNAs [3]: almost twofold higher; increase of protein production compared to m^7GpppG-capped mRNA ([2]; A549 cells, 72 h): over fivefold; Kd [4]: 107 nM
Nc1nc(O)c2c(n1)n([C@@H]1O[C@H](COP(=O)(O)OP(=O)([O-])OP(=O)(O)OC[C@H]3O[C@@H](n4cnc5c(=O)[nH]c(N)nc54)[C@H](O)[C@@H]3O)[C@@H](O)[C@H]1O)c[n+]2Cc1ccc(C(F)(F)F)cc1 [1l, 4-CF3-Bn^7GpppG] |  | 293 ± 43 |  | 
Nc1nc(O)c2c(n1)n([C@@H]1O[C@H](COP(=O)(O)OP(=O)([O-])OP(=O)(O)OC[C@H]3O[C@@H](n4cnc5c(=O)[nH]c(N)nc54)[C@H](O)[C@@H]3O)[C@@H](O)[C@H]1O)c[n+]2Cc1ccc(Cl)cc1 [1h, 4-Cl-Bn^7GpppG] | 2600 | 221 ± 37 |  | increase of protein production compared to ARCA ([2]; A549 cells, 72 h): 2.5 fold
Nc1nc(O)c2c(n1)n([C@@H]1O[C@H](COP(=O)(O)OP(=O)([O-])OP(=O)(O)OC[C@H]3O[C@@H](n4cnc5c(=O)[nH]c(N)nc54)[C@H](O)[C@@H]3O)[C@@H](O)[C@H]1O)c[n+]2Cc1ccc(F)cc1 [1g, 4-F-Bn^7GpppG] | 3100 | 261 ± 54 |  | 
Cc1cccc(C[n+]2cn([C@@H]3O[C@H](COP(=O)(O)OP(=O)([O-])OP(=O)(O)OC[C@H]4O[C@@H](n5cnc6c(=O)[nH]c(N)nc65)[C@H](O)[C@@H]4O)[C@@H](O)[C@H]3O)c3nc(N)nc(O)c32)c1 [1c, 3-MeBn^7GpppG] | 3700 | 319 ± 55 |  | 
Cn1c[n+]([C@@H]2O[C@H](COP(=O)(O)OP(=O)([O-])OP(=O)(O)OC[C@H]3O[C@@H](n4cnc5c(=O)[nH]c(N)nc54)[C@H](O)[C@@H]3O)[C@@H](O)[C@H]2O)c2nc(N)[nH]c(=O)c21 [m^7GpppG, reference compound] | 2700 ± 300 | 229 ± 37 |  | Rel. Protein Expression ([2]; mRNA capped with the analog, Gaussia luciferase activity in A549 cells 72 h post-transfection, normalized to m^7GpppG RNA): 1.0; Kd [4]: 160 nM
Nc1nc(O)c2c(n1)n([C@@H]1O[C@H](COP(=O)(O)OP(=O)([O-])OP(=O)(O)OC[C@H]3O[C@@H](n4cnc5c(=O)[nH]c(N)nc54)[C@H](O)[C@@H]3O)[C@@H](O)[C@H]1O)c[n+]2Cc1ccc([N+](=O)[O-])cc1 [1n, 4-NO2-Bn^7GpppG] | 4300 | 367 ± 71 | accepted by the protein | 
